Like-named read-outs stand apart in the source and are kept apart here.

The target in this assay is T1, HIV-1 protease (Human immunodeficiency virus type 1 group M subtype B, UniProt P04585).
T1 construct: Purified HIV-1 protease was obtained as described below; made in house; host or cells: E. coli K12 L507/pHP10D (NRRL B-18560)
Kind of assay: biochemical. The settings on record: for IC50: read-out: Fluorescence Assay IC50 (converted). Summed up:
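Purified recombinant HIV-1 protease from E. coli preincubated 1 h at room temperature with compound in 20% aqueous DMSO, then biotin-peptide-FITC substrate added in MES-ALB buffer for 16 h at room temperature. Cleavage measured by avidin-bead capture, fluorescence ex 485/em 535 nm.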

Setting [1] is: purified HIV-1 protease, MES-ALB buffer pH 5.5, 1 h preincubation, 16 h with substrate, room temperature, IC50 values for Examples 2-70 are standardized relative to Ex 1.

As to `CC(C)(C)NC(=O)c1ccccc1C[C@@H](O)[C@H](Cc1ccccc1)NC(=O)[C@H](CC(N)=O)NC(=O)NCc1cccc2ccccc12` [Example 58, [2R-(2R*, 3S*, 6S*)]-N-t-butyl-2-(2-hydroxy-3-phenylmethyl-4-aza-5-oxo-6-(2-amino-2-oxoethyl)-7-aza-8-oxo-8-(N-naphth-1-ylmethylamino)octyl)benzamide], the IC50 is 2.82 nM.

As to `CC(C)(C)NC(=O)c1ccccc1C[C@@H](O)[C@H](Cc1ccccc1)NC(=O)[C@H](CC(N)=O)NC(=O)c1ccc2cc(F)cc(F)c2n1` [Example 59, [1S-(1R*, 4R*, 5S*)]-N-(1-(2-amino-2-oxoethyl)-2-oxo-3-aza-4-phenylmethyl-5-hydroxy-6-(2-(1-t-butylamino-1-oxomethyl)phenyl)hexyl)-6,8-difluoroquinolin-2-yl carboxamide], under setting [1], the IC50 is 11.2 nM.

With `CC(C)(C)NC(=O)c1ccccc1CC(O)C(Cc1ccccc1)NC(=O)C(CC(N)=O)NC(=O)c1cccc2cccnc12` (stereo not drawn) [Example 61, [1S-(1R*, 4R*, 5S*)]-N-(1-(2-amino-2-oxoethyl)-2-oxo-3-aza-4-phenylmethyl-5-hydroxy-6-(2-(1-t-butylamino-1-oxomethyl)phenyl)hexyl)-8-quinolinyl carboxamide], the “Fluorescence Assay IC50” value under setting [1] amounted to 1.3 ng/mL.

On to `CC(C)(C)NC(=O)c1ccccc1C[C@@H](O)[C@H](Cc1ccccc1)NC(=O)[C@H](CC(N)=O)NC(=O)c1ccc2cccc(Cl)c2n1` [Example 62, [1S-(1R*, 4R*, 5S*)]-N-(1-(2-amino-2-oxoethyl)-2-oxo-3-aza-4-phenylmethyl-5-hydroxy-6-(2-(1-t-butylamino-1-oxomethyl)phenyl)hexyl)-8-chloroquinolin-2-yl carboxamide], for which the IC50 was 5.9 nM.

Turning to `Cc1cc(C)c2ccc(C(=O)N[C@@H](CC(N)=O)C(=O)N[C@@H](Cc3ccccc3)[C@H](O)Cc3ccccc3C(=O)NC(C)(C)C)nc2c1` [Example 63, [1S-(1R*, 4R*, 5S*)]-N-(1-(2-amino-2-oxoethyl)-2-oxo-3-aza-4-phenylmethyl-5-hydroxy-6-(2-(1-t-butylamino-1-oxomethyl)phenyl)hexyl)-5,7-dimethylquinolin-2-yl carboxamide], the IC50 is 0.784 nM.

As to `COc1cc(C(=O)N[C@@H](CC(N)=O)C(=O)N[C@@H](Cc2ccccc2)[C@H](O)Cc2ccccc2C(=O)NC(C)(C)C)nc2ccccc12` [Example 64, [1S-(1R*, 4R*, 5S*) ]-N-(1-(2-amino-2-oxoethyl)-2-oxo-3-aza-4-phenylmethyl-5-hydroxy-6-(2-(1-t-butylamino-1-oxomethyl)phenyl)hexyl)-4-methoxyquinolin-2-yl carboxamide], the concentration for half-maximal inhibition (IC50) is 0.782 nM.

In the case of `Cc1ccc(C(=O)NC(C)(C)C)c(C[C@@H](O)[C@H](Cc2ccccc2)NC(=O)[C@H](CC(N)=O)NC(=O)c2ccc3ccccc3n2)c1` [Example 65, [1S-(1R*, 4R*, 5S*)]-N-(1-(2-amino-2-oxoethyl)-2-oxo-3-aza-4-phenylmethyl-5-hydroxy-6-(2-(1-t-butylamino-1-oxomethyl)-5-methylphenyl)hexyl)-2-quinolinyl carboxamide], the IC50 was 1.92 nM.

With `CC(C)(C)NC(=O)c1ccccc1CC(O)C(Cc1ccccc1)NC(=O)C(CC(N)=O)NC(=O)c1cc(C(C)(C)C)c2ccccc2n1` (stereo not drawn) [Example 66, [1S-(1R*, 4R*, 5S*)]-N-(1-(3-amino-2-oxoethyl)-2-oxo-3-aza-4-phenylmethyl-5-hydroxy-6-(2-(1-t-butylamino-1-oxomethyl)phenyl)hexyl)-4-(2,2-dimethylethyl)quinolin-2-yl carboxamide], the “Fluorescence Assay IC50” value under setting [1] was 1.5 ng/mL.

Take `Cc1ccc(C[C@@H](O)[C@H](Cc2ccccc2)NC(=O)[C@H](Cc2c[nH]cn2)NC(=O)c2ccc3ccccc3n2)c(C(=O)NC(C)(C)C)c1` [Example 67, [1S-(1R*, 4R*, 5S*)]-N-(1-(4-imidazolylmethyl)-2-oxo-3-aza-4-phenylmethyl-5-hydroxy-6-(2-(1-t-butylamino-1-oxomethyl)-4-methylphenyl)-4-hexyl)-2-quinolinyl carboxamide]: the IC50 is 7.73 nM.

Regarding `CC(C)c1ccc(C(=O)NC(C)(C)C)c(C[C@@H](O)[C@H](Cc2ccccc2)NC(=O)[C@H](CC(N)=O)NC(=O)c2ccc3ccccc3n2)c1` [Example 68, [1S-(1R*, 4R*, 5S,)]-N-(1-(2-amino-2-oxoethyl)-2-oxo-3-aza-4-phenylmethyl-5-hydroxy-6-(2-(1-t-butylamino-1-oxomethyl)-5-isopropylphenyl)hexyl)-2-quinolinyl carboxamide], the IC50 was 0.23 nM.

With `CC1(NC(=O)c2ccccc2C[C@@H](O)[C@H](Cc2ccccc2)NC(=O)[C@H](CC(N)=O)NC(=O)c2ccc3ccccc3n2)CCCC1` [Example 69, [1S-(1R*, 4R*, 5S*) ]-N-(1-(2-amino-2-oxoethyl) -2-oxo-3-aza-4-phenylmethyl-5-hydroxy-6-(2-(1-(1-methylcyclopent-1-yl)amino-1-oxomethyl)phenyl)hexyl)-2-quinolinyl carboxamide], the IC50 was 1.2 nM.

For the compound `CC(C)(C)NC(=O)c1ccccc1C[C@@H](O)[C@H](Cc1ccccc1)NC(=O)[C@H](CC(=O)NCc1c[nH]c2ccccc12)NC(=O)c1ccc2ccccc2n1` [Example 70, [1S-(1R*, 4R*, 5*)]-N-(1-(2-(N-indol-3-ylmethyl)amino)-2-oxoethyl)-2-oxo-3-aza-4-phenylmethyl-5-hydroxy-6-(2-(1-t-butylamino-1-oxomethyl)phenyl)hexyl)-2-quinolinyl carboxamide], the concentration for half-maximal inhibition (IC50) was 0.785 nM.

Turning to “[1S-(1R*, 4R*, 5S*)]-N-(1-(2-amino-2-oxoethyl)-2-oxo-3-aza-4-phenylmethyl-5-hydroxy-6-(2- (1-t-butylamino-1-oxomethyl)phenyl)hexyl)-2(6, 7, 8, 9-tetrahydronaphthyl) carboxamide [Example 33]”, the “Fluorescence Assay IC50” value under setting [1] turned out to be 1.4 ng/mL.

These data come from patent US5719287A, “Intermediates for inhibitors of HIV protease and method of preparation thereof” (Eli Lilly and Company, priority 1995, dated 1998).
